Reference: US6280760A, “Peptide-coated implants and methods for producing same” (Merck Patent Gesellschaft mit beschraenkter Haftung, priority 1997, dated 2001)

Columns and labels:
[1] = test system: MC3T3 H1 osteoblasts; experiment: Adhesion of MC3T3 H1 osteoblasts to PMMA moulded articles coated with acrylate RGD peptides; type: cell-based, mouse
Experimental: For the covalent coupling of these peptides to polymerized PMMA (polymethyl methacrylate) surfaces, appropriate shaped articles of differing porosity (diameter: 10 mm; height: 2 mm) were prepared from three different PMMA components.
Bone cement based on PMMA (Merck KGaA, Germany, Licence No. 5181.00.00) corresponding to the product description (40 g of powder+20 ml of liquid).
10 g of PMMA/PHEMA (polyhydroxyethyl methacrylate) granules, particle size 0.5-0.6 mm (Biomet) were mixed with 1.3 ml of an HEMA solution (68.6% HEMA, 29.4% TEGMA [triethylene glycol dimethacrylate], 2% tBPB, [tert-butyl peroxybenzoate]) and adhered by means of this to a porous support material.
10 g of PMMA granules (Plex Y7H, Rohm, Germany), particle fraction 0.7-2 mm were mixed with 1.5 ml of a methyl methacrylate (MMA) solution (68.6% MMA, 29.4% TEGMA, 2% tBPB) and adhered by this means to a porous support material.
For the covalent coupling of the acrylate peptides to the prepolymerized PMMA moulded articles, stock solutions of the acrylate peptides 1, 2, 3 and 4 were prepared in a final concentration of 100 μM in each case in DMSO/0.2% camphorquinone (w/v). Then, by dilution with isopropanol/0.2% camphorquinone (w/v), concentration series having final peptide concentrations of 0.1 nM, 1 nM, 10 nM, 100 nM, 1 μM and 10 μM in each case were prepared. The moulded articles were incubated in daylight and at room temperature for 2 hours and then stored at 4° C. in the dry state. Before use, the samples were washed with PBS, pH 7.4, to remove unbound peptides and stored at 4° C. in PBS, pH 7.4, overnight.
By addition of 250 μl/moulded article each of a 5% strength BSA solution in PBS, pH 7.4, and subsequent incubation for 2 hours at room temperature and washing once with PBS, pH 7.4, non-specific cell-binding sites were blocked.
Subsequently, the adhesion of osteoblasts of the MC3T3 H1 line, obtained from the calvaria of neonatal mice (Heermeier et al., 1995, Cells and Materials 5: 309-321) to the above-described peptide-coated surfaces was investigated.
The MC3T3 H1 osteoblasts were inoculated at an inoculation density of 48,000 cells/cm^2, as described above, in Costar 48-well plates, with PMMA moulded articles coated with RGD peptide and then incubated for 1 hour at 37° C., 95% atmospheric humidity and 5% CO2. Cells non-adhered during the experiment were then washed off twice with PBS, pH 7.4.
The quantification of the adhered cells was carried out indirectly via the activity determination of the cellular enzyme N-acetylhexosaminidase using an appropriate standard curve according to the method of Landegren (1984, J. Immunol. Methods, 67: 379-388).

[2] = test system: human platelets; experiment: Adhesion of human platelets to PMMA bone cement shaped articles coated with cell-selective acrylate peptides; type: cell-based; settings: for cell adhesion, calculated Abs (405 nm), platelets: first part experiment
Source text: The model used for material coating with RGD peptides of different cell selectivity to obtain implants having locally differentiated bioactive coating patterns which should stimulate the adhesion of different cell species was polymerized PMMA bone cement shaped articles. To these were covalently coupled two RGD peptides of different cell selectivity. In this case acrylate peptide 3, type iiia, having a selectivity for alphav beta3 -/alphav beta5 -integrin-bearing osteoblasts, and acrylate peptide 5, type iiia, having a selectivity for […] -positive platelets were bonded to the PMMA shaped articles as described for Example 3.
a. In the first part experiment, PMMA shaped articles were coated with the acrylate peptides 3 and 5 in concentrations in the coating solution of 100 μM, 10 μM and 1 μM in each case. These RGD peptide-coated materials were then inoculated in parallel with osteoblasts and platelets and their cell adhesion was determined.
MC3T3 H1 osteoblasts (350,000 cells/cm^2) and human platelets (50 million cells/cm^2) were in each case inoculated in parallel both onto acrylate peptide 3- and acrylate peptide 5-coated PMMA shaped articles and their cell adhesion was determined as described in Example 3.
Human platelets were prepared following the process of Shattil and Brass (J. Biol. Chem. 262:992-1000, 1987).
(§1) b. In the second part experiment, PMMA shaped articles were likewise coated with the acrylate peptides 3 and 5, but only in a concentration in the coating solution of 100 μM in each case. These RGD peptide-coated materials were then inoculated in parallel with osteoblasts, platelets or an osteoblast/platelet mixture and their cell adhesion was determined. MC3T3 H1 osteoblasts (350,000 cells/cm^2), human platelets (50 million cell/cm^2) and a cell mixture (350,000 osteoblasts/cm^2 […] 50 million platelets/cm^2) were in each case inoculated in parallel both onto acrylate peptide 3- and acrylate peptide 5-coated PMMA shaped articles and their cell adhesion was determined as described in Example 3.

[3] = test system: osteoblasts/platelets mixture; experiment: Adhesion of an osteoblast/platelet mixture to PMMA bone cement shaped articles coated with cell-selective acrylate peptides; type: cell-based, mouse, human; settings: second part experiment; 100 μM peptide in the coating solution
Experimental: as §1

EC50 ([1]; different PMMA moulded articles, read-out: half-maximal cell bindings, RGD peptide concentration in the coating solution): 0.001 to 10 µM
Substance: cyclo(RGDf[acrylic-ahx-tEG-K]) [acrylate peptide 3]
stimulation of cell adhesion (in words) ([1]; PMMA carriers, comparison of anchor lengths): higher activity
cell adsorption rates increased in comparison with uncoated surfaces ([1]; bone cement shaped articles, FIG. 8): 5-15 fold
maximal adsorption rates ([1]; different PMMA moulded articles, 48,000 cells/cm^2, 1 hour): 80-100%
cell adsorption rates increased in comparison with uncoated surfaces ([1]; porous PMMA/PHEMA granule shaped articles, FIG. 9): 2-5 fold
cell adsorption rates increased in comparison with uncoated surfaces ([1]; porous Plex Y7H granule shaped articles, FIG. 10): 2-3 fold
cell adhesion, calculated Abs (405 nm), platelets ([2]; 1 μM peptide in the coating solution): about 0.2 Abs
cell adhesion, calculated Abs (405 nm), platelets ([2]; 10 μM peptide in the coating solution): about 1.5 Abs
cell adhesion, calculated Abs (405 nm), platelets ([2]; 100 μM peptide in the coating solution): about 3.0 Abs
cell adhesion, Abs, platelets alone ([2]; second part experiment, 100 μM peptide in the coating solution): about 3.0 Abs
cell adhesion, Abs, osteoblasts/platelets inoculated as a mixture [3]: about 6.5 Abs
